Among the data in PubChem BioAssay AID1033 (Sanford-Burnham Center for Chemical Genomics, 2008) are Kd values, retold here.

Activity calls are given as the source filed them. How the calls were made is not given here. Bounds are passed on as bounds.

Chaperone protein DnaK (Escherichia coli (strain K12)), sequence (P0A6Y8 whole entry, looked up): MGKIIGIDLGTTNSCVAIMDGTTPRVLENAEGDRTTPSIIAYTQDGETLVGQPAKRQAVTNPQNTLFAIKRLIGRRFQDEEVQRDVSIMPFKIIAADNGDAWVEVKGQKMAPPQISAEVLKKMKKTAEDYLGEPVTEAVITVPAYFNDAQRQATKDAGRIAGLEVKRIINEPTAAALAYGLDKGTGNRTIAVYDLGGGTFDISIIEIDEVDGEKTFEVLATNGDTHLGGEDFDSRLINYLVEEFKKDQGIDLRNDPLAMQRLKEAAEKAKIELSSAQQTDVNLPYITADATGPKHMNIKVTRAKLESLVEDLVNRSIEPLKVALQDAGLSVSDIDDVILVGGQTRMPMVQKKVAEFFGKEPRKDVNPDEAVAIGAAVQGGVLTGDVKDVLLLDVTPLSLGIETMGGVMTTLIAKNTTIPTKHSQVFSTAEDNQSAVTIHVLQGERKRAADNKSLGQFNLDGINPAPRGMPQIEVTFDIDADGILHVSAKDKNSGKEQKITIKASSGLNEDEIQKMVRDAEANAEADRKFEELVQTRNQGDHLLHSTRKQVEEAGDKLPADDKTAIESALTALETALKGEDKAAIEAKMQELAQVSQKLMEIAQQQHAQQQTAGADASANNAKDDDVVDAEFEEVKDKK

This test concerns the target Chaperone protein DnaK (Escherichia coli (strain K12)) (UniProt P0A6Y8). Description: E. coli DnaK SBD ligand binding – biophysical, NMR, chaperone (AID 1033). As to conditions: Purified DnaK SBD.
In the case of `Cc1sc2nc(-c3ccco3)oc(=O)c2c1C`, the Kd (commonly the constant that tells how readily two partners part at equilibrium) is > 4 mM (inactive).
Next, `COc1ccc(-c2oc3ccccc3c(=O)c2O)cc1OC`: > 4 mM (inactive); `O=C1CCC(=O)N1c1ccc(O)cc1`: > 4 mM (inactive); `Cc1noc(C)c1CSc1nc2ccccc2[nH]1`: > 4 mM (inactive).
Regarding `c1ccc(Cc2nnc(-c3ccccc3)o2)cc1`, the Kd was > 4 mM (inactive).
The same measure for `Cc1nc(SCC(=O)c2c[nH]c3ccccc23)n[nH]1`: > 4 mM (inactive).
Regarding `O=C(c1ccc(Cl)s1)N1CCOCC1`, the Kd is > 4 mM (inactive).
Next, `COc1cc(-c2coc3cc(OCc4ccccc4)c(OC)c(O)c3c2=O)cc(O)c1OC`: > 4 mM (inactive); `COc1ccc(N2C(=O)CCC2=O)c(OC)c1`: > 4 mM (inactive).
Next, `CC(=O)Oc1c(C)c(C)c2c(c1C)CCC(C)(CCCC(C)CCCC(C)CCCC(C)C)O2` (stereo not given): > 4 mM (inactive).
The same measure for `CC(C)n1nnc2cc(C(=O)O)ccc21`: > 4 mM (inactive).
In the case of `CC(=O)c1cccc(NC(=O)N2CCc3ccccc3C2)c1`, the Kd was > 4 mM (inactive).
The same measure for `N#CCSc1nnc2ccc3ccccc3n12`: > 4 mM (inactive); for `COC(=O)[C@H]1[C@H]2C[C@H]3c4[nH]c5ccccc5c4CCN3C[C@H]2CC[C@@H]1O`: > 4 mM (inactive).
Next, `NC(C(=O)O)C(O)C(=O)O` (stereo not given): > 4 mM (inactive); `CCOC(=O)c1cc(C)[nH]n1`: > 4 mM (inactive); `O=c1c(-c2cccs2)[n+]([O-])c2ccccc2n1O`: > 4 mM (inactive).
Next, `Cc1nccn1CCC(=O)O`: > 4 mM (inactive).
Turning to `Cc1oc(-c2ccccc2)cc1CO`, the Kd was > 4 mM (inactive).
Consider `CC(O)C(=O)N/N=C/c1ccccc1` (stereo not given), for which the Kd is > 4 mM (inactive).
In the case of `COC(=O)c1cncc(C(=O)OC)c1`, the Kd is > 4 mM (inactive).
The same measure for `CC(=O)CC1CCCCN1` (stereo not given): > 4 mM (inactive); for `COc1ccc(S(=O)(=O)NCCO)cc1`: > 4 mM (inactive).
Next, `COC(=O)Nc1c(C)n(C)n(-c2ccccc2)c1=O`: > 4 mM (inactive); `O=C(NCN1CCOCC1)c1cnccn1`: > 4 mM (inactive).
Next, `O=c1oc2c(O)c(O)cc3c(=O)oc4c(O)c(O)cc1c4c23`: > 4 mM (inactive); `COc1ccccc1NS(=O)(=O)c1c[nH]c(=O)[nH]c1=O`: > 4 mM (inactive); `CC(=O)Nc1ccc(N2CCOCC2)cc1`: > 4 mM (inactive).
Regarding `COc1ccc(NC(=O)CCCC(=O)O)c(OC)c1`, the Kd is > 4 mM (inactive).
For `O=C1N/C(=N\c2ccccn2)SC1Cc1ccccc1` (stereo not given), the Kd is > 4 mM (inactive).
With `CC12CCC3C(CC3(C)C)C(C)(CCC1=O)O2` (stereo not given), the Kd is > 4 mM (inactive).
Next, `COc1cccc(O)c1O`: > 4 mM (inactive).
Next, `COc1ccc(C(C)=O)c(O)c1`: > 4 mM (inactive); `NC(=O)C1CCN(C(=O)c2ccco2)CC1`: > 4 mM (inactive); `OCc1cccs1`: > 4 mM (inactive).
`CCOC(=O)C1CN(C)CCN1C` (stereo not given): the Kd is > 4 mM (inactive).
Next, `COc1cc(S(=O)(=O)Nc2cccnc2)ccc1F`: > 4 mM (inactive); `NC(=O)CC(=O)NC12CC3CC(CC(C3)C1)C2`: > 4 mM (inactive).
The same measure for `CC(=O)N1CCC(NC2CCCCCC2)CC1`: > 4 mM (inactive); for `CN(C)CC(O)C1CCOC(C)(C)C1` (stereo not given): > 4 mM (inactive).
Next, `CC(=O)O[C@@H]1CC2C(C)(C)C(=O)C=C[C@]2(C)C2CC[C@@]3(C)[C@H](c4ccoc4)OC(=O)[C@H]4O[C@]43[C@@]21C` (stereo not given in full): > 4 mM (inactive); `Cc1ccc(SCC(=O)N2CCOCC2)cc1`: > 4 mM (inactive).
`O=C(c1cccs1)N1CCCc2ccccc21`: the Kd is > 4 mM (inactive).
The same measure for `CC(=O)NS(=O)(=O)c1ccc(C)cc1`: > 4 mM (inactive); for `O=C(NC(=S)NC1CCS(=O)(=O)C1)c1ccccc1` (stereo not given): > 4 mM (inactive); for `Oc1ccccc1N1CCCC1`: > 4 mM (inactive).
Next, `Cc1cccc(NC(=O)Nc2cc(C)on2)c1`: > 4 mM (inactive).
Next, `CC(=O)Nc1ccc(NC(C)=O)c(C(F)(F)F)c1`: > 4 mM (inactive); `CC1(C)C=Cc2c(cc3occ(-c4ccc5c(c4)OCO5)c(=O)c3c2O)O1`: > 4 mM (inactive); `Cc1ccc2[nH]c3nc(=S)[nH]nc3c2c1`: > 4 mM (inactive).
As to `COc1c2ccccc2nc2occc12`, the Kd was > 4 mM (inactive).
Next, `CCOC(=O)C1=C(C)N2CCN=C2S1`: > 4 mM (inactive); `O=C(O)c1ccccc1C(=O)Nc1ccccc1`: > 4 mM (inactive); `Oc1ccccc1C(=S)N1CCCCCC1`: > 4 mM (inactive).
As to `O=S(=O)(Nc1ccc2c(c1)OCCO2)c1cccs1`, the Kd is > 4 mM (inactive).
Next, `Nc1nc(N)nc(N2C(=O)c3ccccc3C2=O)n1`: > 4 mM (inactive); `O=C1Nc2ccccc2C1(O)Cc1ccncc1` (stereo not given): > 4 mM (inactive).
The same measure for `O=C(Nc1ccc2c(c1)OCCO2)c1ccncc1`: > 4 mM (inactive).
Next, `O=C(CCc1n[nH]c(=O)[nH]c1=O)NCc1ccccc1`: > 4 mM (inactive); `CCOC(=O)c1ccc2c(c1)nnn2C`: > 4 mM (inactive).
As to `CCCCCCCCCCCC[C@H](C(=O)O)[C@@H](C)C(=O)O`, the Kd was > 4 mM (inactive).
The same measure for `O=C(O)C1Cc2ccccc2O1` (stereo not given): > 4 mM (inactive); for `COC(=O)c1sc(N)nc1C`: > 4 mM (inactive); for `CN=C(c1ccc([N+](=O)[O-])cc1)N(C)C`: > 4 mM (inactive).
The same measure for `CNC(=O)Nc1ccc(C(=O)NC)cc1`: > 4 mM (inactive); for `Nc1ccc(-n2cccc2)cc1`: > 4 mM (inactive).
Consider `O=C(O)CCCCCCCCCCCCC1C=CCC1` (stereo not given), for which the Kd was > 4 mM (inactive).
With `Cc1ccc(C(=O)NCCO)c(Cl)c1`, the Kd is > 4 mM (inactive).
Next, `CCOC(=O)C1CCC(=O)c2cccn21` (stereo not given): > 4 mM (inactive); `COc1cc(C(C)=O)ccc1OCC(O)Cn1ccnc1` (stereo not given): > 4 mM (inactive).
On to `CNC(=O)N1CCN(C(=O)NC)CC1`, for which the Kd is > 4 mM (inactive).
The same measure for `N/N=C1\CCCc2c1no[n+]2[O-]`: > 4 mM (inactive); for `CC(=O)c1cc(-c2nc3ccccc3n2C)n(C)c1`: > 4 mM (inactive).
Next, `Cc1n[nH]c(=O)c2ncn(C)c12`: > 4 mM (inactive); `O=C(O)CCn1cncn1`: > 4 mM (inactive).
The same measure for `O=c1c[n+]([O-])c2ccccc2n1OCc1ccccc1`: > 4 mM (inactive).
As to `O=C(Nc1cccnc1)c1cccs1`, the Kd is > 4 mM (inactive).
Turning to `CCNC(CC(=O)Nc1cccc([N+](=O)[O-])c1)C(=O)O` (stereo not given), the Kd was > 4 mM (inactive).
The same measure for `COc1ccc(-c2coc3cc(OC(C)=O)cc(OC(C)=O)c3c2=O)cc1`: > 4 mM (inactive).
The same measure for `COC(=O)/C(C)=C\CC12OC(C)(C)C3CC(C=C4C(=O)c5c(OC)c6c(c(CC=C(C)C)c5OC431)OC(C)(CCC=C(C)C)C=C6)C2=O` (stereo not given): > 4 mM (inactive).
Next, `CC(C)(C)NC(=O)N1CCC(C(N)=O)CC1`: > 4 mM (inactive).
For `CC(=O)NC1(NC(C)=O)CCN(C)CC1`, the Kd is > 4 mM (inactive).
The same measure for `Cn1nccc1N`: > 4 mM (inactive); for `Cc1ccccc1NS(=O)(=O)c1ccc(F)cc1`: 0.2 mM.
As for `CC[C@H](/C=C/C(C)C1CCC2C3CCC4=CC(=O)CC[C@]4(C)C3CC[C@]12C)C(C)C` (stereo not given in full), the Kd is > 4 mM (inactive).
The same measure for `Cc1nn(C)c2sc(C(=O)O)cc12`: > 4 mM (inactive).
Take `Cc1c(CO)cnn1-c1ccc(F)cc1`: the Kd is > 4 mM (inactive).
As to `O=[n+]1c(CO)c(CO)n([O-])c2ccccc21`, the Kd is > 4 mM (inactive).
`CN1CCOc2cc(C(=O)O)ccc21`: the Kd was > 4 mM (inactive).
Next, `COc1cccc(-c2nc3ccc(O)cc3c(=O)o2)c1`: > 4 mM (inactive); `O=C(O)c1csc(-c2cccnc2)n1`: > 4 mM (inactive).
`Cc1cc(O)cc(O)c1C(=O)O`: the Kd was > 4 mM (inactive).
Next, `COC1=CC(=O)C(O)=C/C1=C\C=C\c1ccccc1`: > 4 mM (inactive); `NCc1ccc2occc2c1`: > 4 mM (inactive); `NC(=O)c1ccc(Cl)c(N2C(=O)CCC2=O)c1`: > 4 mM (inactive).
The same measure for `Cc1n[nH]c(=S)n(/N=C/c2ccccc2)c1=O`: > 4 mM (inactive).
For the compound `O=C1C=C(Nc2ccccc2O)c2ccccc2C1=O`, the Kd is > 4 mM (inactive).
Next, `CCSc1nc(=S)n(CC)c(C)c1C(C)=O`: > 4 mM (inactive).
The same measure for `CC(=O)O[C@H]1C[C@@H](OC(C)=O)C(C)(C)C2CC(=O)[C@]3(C)C(CC[C@@]4(C)[C@H](C(=O)O)OC(=O)C5OC543)[C@]21C` (stereo not given in full): > 4 mM (inactive); for `Cc1cc(C(=O)N2CCN(c3ccccn3)CC2)c(C)o1`: > 4 mM (inactive); for `C=CCn1c(-c2ccc(O)cc2)n[nH]c1=S`: > 4 mM (inactive).
The same measure for `CSc1nc(C)cc(-n2ccc(=O)[nH]c2=O)n1`: > 4 mM (inactive); for `O=C(Nc1nnc(-c2ccncc2)o1)c1cccs1`: > 4 mM (inactive); for `NC(=O)C1CCN(C(=O)c2ccccc2)CC1`: > 4 mM (inactive).
In the case of `CN(C)CCNC(CC(=O)Nc1ccccc1)C(=O)O` (stereo not given), the Kd was > 4 mM (inactive).
